We go through 2 compounds from US6893642B1, “Algae protein polysaccharide extraction and use thereof” (priority 1999, dated 2005).

The subject of assay [1] is mice injected with CTX. The experiment in a line: T-lymphocyte test. The assay is classed as in vivo. The following applies: positive control: CTX 10 mg/kg/d then water p.o. The protocol:
Mice, body weight of 18-22 g, were randomly divided into a blank control group, positive control group, a higher dose group and a lower dose group, with 10 mice per group. The mice in the treated groups were injected with CTX at a dose of 10 mg/kg/d, and then treated with proteoglycan extracts of Spirulina via p.o., at the same dose as above. The mice in the positive control group were treated with CTX at a dose of 10 mg/kg/d, and then treated with water via p.o. the mice in the control group only were treated with water via p.o. after the treatment was continuously taken for 10 days, the treatment was stopped for 2 days. Blood was harvested from eye sockets of the mice for lymphocyte slices. After incubation and dyeing, T-lymphocyte percentage was determined.

Assay [2] deals with T1, PTK picked up from A431 cell containing the EGFR (Homo sapiens, UniProt P00533).
T1 construct: we used A431 cell containing the EGFR for picking up PTK; endogenous in cells; host or cells: A431 cells
T1 sequence (P00533 25-1210): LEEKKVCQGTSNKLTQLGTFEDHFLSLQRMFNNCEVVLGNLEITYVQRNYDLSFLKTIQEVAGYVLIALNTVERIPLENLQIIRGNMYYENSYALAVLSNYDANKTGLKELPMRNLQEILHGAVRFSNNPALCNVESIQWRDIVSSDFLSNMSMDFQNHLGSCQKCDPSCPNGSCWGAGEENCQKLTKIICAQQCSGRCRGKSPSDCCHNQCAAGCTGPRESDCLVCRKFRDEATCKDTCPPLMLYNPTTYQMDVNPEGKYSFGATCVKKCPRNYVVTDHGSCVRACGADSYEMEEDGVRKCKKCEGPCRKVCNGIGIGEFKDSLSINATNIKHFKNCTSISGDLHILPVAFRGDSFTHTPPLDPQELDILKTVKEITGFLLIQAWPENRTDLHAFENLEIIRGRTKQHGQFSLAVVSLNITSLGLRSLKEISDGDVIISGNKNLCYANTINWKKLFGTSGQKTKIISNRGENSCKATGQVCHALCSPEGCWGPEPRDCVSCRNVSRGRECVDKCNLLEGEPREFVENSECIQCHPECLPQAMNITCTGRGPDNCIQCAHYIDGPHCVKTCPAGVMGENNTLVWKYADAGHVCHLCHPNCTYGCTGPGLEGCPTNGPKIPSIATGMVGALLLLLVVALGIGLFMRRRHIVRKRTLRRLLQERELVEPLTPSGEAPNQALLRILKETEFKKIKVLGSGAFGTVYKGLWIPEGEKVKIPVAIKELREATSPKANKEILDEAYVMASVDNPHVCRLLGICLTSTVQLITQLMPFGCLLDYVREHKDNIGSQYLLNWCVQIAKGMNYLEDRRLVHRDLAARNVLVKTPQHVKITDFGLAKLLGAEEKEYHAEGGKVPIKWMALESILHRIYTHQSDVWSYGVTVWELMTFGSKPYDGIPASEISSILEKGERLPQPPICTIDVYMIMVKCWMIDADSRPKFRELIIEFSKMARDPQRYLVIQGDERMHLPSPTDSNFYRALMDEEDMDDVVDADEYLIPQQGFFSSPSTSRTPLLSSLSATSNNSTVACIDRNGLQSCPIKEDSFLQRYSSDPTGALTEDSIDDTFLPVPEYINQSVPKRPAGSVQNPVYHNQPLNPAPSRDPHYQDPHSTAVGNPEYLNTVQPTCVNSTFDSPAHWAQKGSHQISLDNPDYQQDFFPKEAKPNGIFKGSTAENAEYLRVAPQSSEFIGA
The experiment in a line: Phosphorylation of protein tyrosine kinase (PTK). The assay is classed as biochemical. From the text: Epidermal growth factor receptor (EGFR), a PTK of receptor type, is a single-stranded trans-membrane glycoprotein consisting of 1186 amino acids, whose molecular weight is […], and exists extensively on the epithelial membrane of the mammals. The C end of the EGFR can recognize and activate many cellular substrates after phosphorylated, then effect on metabolization, growth and carcinogenesis of a cell. […] In our research, we used A431 cell containing the EGFR for picking up PTK, so as to observe the effect of the proteoglycan extract of spirulina on phosphorylation of PTK.

The structures appear in SMILES notation.

The compound `O=P1(N(CCCl)CCCl)NCCCO1` (stereo not shown) [CTX] gave a T-lymphocyte percentage in assay [1] of 25.6 ± 2.51%.

For `N#CC(C#N)=Cc1cc(O)c(O)c(O)c1` [tyrphostin 25], the inhibition rate entry in assay [2] (Results 1, positive control, 2.5 mM) is given as “Positive control: 2.5 mM tyrphostin 25, inhibition rate: 100%”; in assay [2] (Results 2, positive control, 0.25 mM), “Positive control: 0.25 mM tyrphostin 25, inhibition rate: 86.1%”; in assay [2] (Results 3, positive control, 0.25 mM), “Positive control: 0.25 mM tyrphostin 25, inhibition rate: 80.5%”.
